Reference: US20250332173A1, “COMPOUNDS AND METHODS FOR MODULATING NUCLEIC ACID SPLICING” (REMIX THERAPEUTICS INC., priority 2021, published 2025)
Read-outs that look alike come from different tables or passages of the source.

Tests used:
[1] = tested on: HTT mRNA; test: RT-qPCR splicing assay, HTT canonical junction (CJ) and alternative junction (AJ) mRNA; format: cell-based, human; conditions: Homo sapiens; for AC50: increase in HTT alternative junction (AJ) mRNA, read-out: HTT AJ AC50
Method: (§1) The expression of a target mRNA was measured by detecting the formation of an exon-exon junction in the canonical transcript (CJ). A compound mediated exon-inclusion event was detected by observing an increase in formation of a new junction with an alternative exon (AJ). Real-time qPCR assays were used to detect these splicing switches and interrogate the potency of various compounds towards different target genes. A high-throughput real time quantitative PCR (RT-qPCR) assay was developed to measure these two isoforms of the mRNA (CJ and AJ) for exemplary genes, such as HTT, SMN2, and MYB, together with a control housekeeping gene, GAPDH or GUSB or PPIA, used for normalization. Briefly, the A673 or K562 cell line was treated with various compounds described herein (e.g., compounds of Formula (I)). After treatment, the levels of the HTT, MYB, or SMN2 mRNA targets were determined from each sample of cell lysate by cDNA synthesis followed by qPCR.
(§2) • Cells-to-CT 1-step kit: ThermoFisher A25602, Cells-to-CT lysis reagent: ThermoFisher 4391851C, TaqMan™ Fast Virus 1-Step Master Mix: ThermoFisher 4444436 • GAPDH: VIC-PL, ThermoFisher 4326317E (Assay: Hs99999905_m1)—used for K562/suspension cell lines • GUSB: VIC-PL, ThermoFisher 4326320E (Assay: Hs99999908_m1)—used for K562/suspension cell lines • PPIA: VIC-PL, ThermoFisher 4326316E (Assay: Hs99999904_m1)—used for A673/adherent cell lines
(§3) The A673 cell line was cultured in DMEM with 10% FBS. Cells were diluted with full growth media and plated in a 96-well plate (15,000 cells in 100 ul media per well). The plate was incubated at 37° C. with 5% CO2 for 24 hours to allow cells to adhere. An 11-point 3-fold serial dilution of the compounds was made in DMSO then diluted in media in an intermediate plate. Compounds were transferred from the intermediate plate to the cell plate with the top dose at a final concentration of 10 uM in the well. Final DMSO concentration was kept at or below 0.25%. The cell plate was returned to the incubator at 37° C. with 5% CO2 for an additional 24 hours.
(§4) The K562 cell line was cultured in IMDM with 10% FBS. For K562, cells were diluted with full growth media and plated in either a 96-well plate (50,000 cells in 50 uL media per well) or a 384-well plate (8,000-40,000 cells in 45 uL media per well). An 11-point 3-fold serial dilution of the compounds were made in DMSO then diluted in media in an intermediate plate. Compound was transferred from the intermediate plate to the cell plate with the top dose at a final concentration of 10 uM in the well. Final DMSO concentration was kept at or below 0.25%. Final volume was 100 uL for 96-well plate and 50 uL for 384-well plate. The cell plate was then placed in an incubator at 37° C. with 5% CO2 for 24 hours.
(§5) The cells were then gently washed with 50 uL-100 uL cold PBS before proceeding to addition of lysis buffer. 30 uL-50 uL of room temperature lysis buffer with DNAse I (and optionally RNAsin) was added to each well. Cells were shaken/mixed thoroughly at room temperature for 5-10 minutes for lysis to take place and then 3 uL-5 uL of room temperature stop solution was added and wells were shaken/mixed again. After 2-5 minutes, the cell lysate plate was transferred to ice for RT-qPCR reaction setup. The lysates could also be frozen at −80° C. for later use.
(§6) In some cases, a direct lysis buffer was used. An appropriate volume of 3× lysis buffer (10 mM Tris, 150 mM NaCl, 1.5%-2.5% Igepal and 0.1-1 U/uL RNAsin, pH 7.4) was directly added to either K562 or A673 cells in media and mixed by pipetting 3 times. The plates were then incubated at room temperature with shaking/rocking for 20-50 minutes to allow for lysis to take place. After this time, the cell lysate plate was transferred to ice to set up for the RT-qPCR reactions. The lysates could also be frozen at −80° C. for later use.

[2] = tested on: MYB mRNA; test: RT-qPCR splicing assay, MYB canonical junction (CJ) and alternative junction (AJ) mRNA; format: cell-based, human; conditions: Homo sapiens; for AC50: increase in MYB alternative junction (AJ) mRNA, read-out: MYB AJ AC50
Method: as §1, §2, §3, §4, §5, §6

[3] = tested on: SMN2 mRNA; test: RT-qPCR splicing assay, SMN2 canonical junction (CJ) mRNA; format: cell-based, human; conditions: Homo sapiens
Method: as §1, §3, §4, §5, §6
(§7) To set up 10 uL RT-qPCR reactions, cell lysates were transferred to 384-well qPCR plates containing the master mix according to the table below. The plates were sealed, gently vortexed, and spun down before the run. The volumes were adjusted accordingly in some instances where the reaction was carried in 20 uL. The table below summarizes the components of the RT-qPCR reactions:
(§8) The RT-qPCR reaction was performed using a QuantStudio (ThermoFisher) under the following fast cycling conditions.

[4] = tested on: Target C; test: RT-qPCR splicing assay panel, Target C canonical junction (CJ) mRNA; format: cell-based, human; conditions: Homo sapiens
Method: as §1, §3, §4, §5, §6, §7, §8

[5] = tested on: K562 (human chronic myelogenous leukemia) cells; test: Cell Titer Glo 2.0 cell viability assay; format: cell-based; conditions: Homo sapiens, K562, 72 h, K562 cells, 72 hours, Cell Titer Glo 2.0; read-out: K562 GI50
[6] = decrease in HTT canonical junction (CJ) mRNA, RT-qPCR, read-out: HTT CJ IC50
[7] = canonical junction qPCR panel, Table 5, read-out: HTT (decrease in CJ mRNA levels, IC50)
[8] = canonical junction qPCR panel, Table 5, read-out: MYB (decrease in CJ mRNA levels, IC50)
[9] = decrease in MYB canonical junction (CJ) mRNA, RT-qPCR, read-out: MYB CJ IC50
[10] = canonical junction qPCR panel, Table 5, read-out: SMN2 (decrease in CJ mRNA levels, IC50)
[11] = canonical junction qPCR panel, Table 5, read-out: Target C (decrease in CJ mRNA levels, IC50)

| Compound | IC50 [1, 6] [nM] | AC50 ([1]; RT-qPCR) [nM] | IC50 [1, 7] [nM] | IC50 [2, 8] [nM] | IC50 [2, 9] [nM] | AC50 ([2]; RT-qPCR) [nM] | IC50 [3, 10] [nM] | IC50 [4, 11] [nM] | GI50 [5] [nM] | IC50 ([1]; Table 5 panel, canonical junction qPCR, compound concentration having 50% response in CJ decrease, read-out: HTT IC50 (decrease in CJ mRNA levels)) [nM] | IC50 ([2]; Table 5 panel, canonical junction qPCR, compound concentration having 50% response in CJ decrease, read-out: MYB IC50 (decrease in CJ mRNA levels)) [nM] | IC50 ([3]; Table 5 panel, canonical junction qPCR, compound concentration having 50% response in CJ decrease, read-out: SMN2 IC50 (decrease in CJ mRNA levels)) [nM] | IC50 ([4]; Table 5 panel, canonical junction qPCR, compound concentration having 50% response in CJ decrease, read-out: Target C IC50 (decrease in CJ mRNA levels)) [nM] |
| --- | --- | --- | --- | --- | --- | --- | --- | --- | --- | --- | --- | --- | --- |
| Cc1cn2cc(-c3ncc4c(=O)n([C@@H]5C[C@@H](C)N[C@@H](C)C5)ccc4n3)cc(F)c2n1 [Compound 1480, 6-[(2R,6S)-2,6-dimethyl-4-piperidyl]-2-(8-fluoro-2-methyl-imidazo[1,2-a]pyridin-6-yl)pyrido[4,3-d]pyrimidin-5-one] | 100 to 1000 | 100 to 1000 | 100 to 1000 | 100 to 1000 | 100 to 1000 | 100 to 1000 | 100 to 1000 | 100 to 1000 | 100 to 1000 |  |  |  |  |
| Cc1cn2cc(-c3ccc4c(=O)n(C5C[C@H](C)N[C@@H](C)C5)ccc4n3)cc(F)c2n1 (stereo partly drawn) [Compound 1502, 6-[(2S,6S)-2,6-dimethyl-4-piperidyl]-2-(8-fluoro-2-methyl-imidazo[1,2-a]pyridin-6-yl)-1,6-naphthyridin-5-one] | 1000 to 10000 | 1000 to 10000 | 1000 to 10000 | 100 to 1000 | 100 to 1000 | 100 to 1000 | < 100 | 1000 to 10000 | 100 to 1000 |  |  |  |  |
| C[C@H]1C[C@@H](n2ccc3nc(-c4cc5cn(C)nc5cc4O)ncc3c2=O)CCN1 [Compound 1493, 2-(6-hydroxy-2-methyl-indazol-5-yl)-6-[(2S,4S)-2-methyl-4-piperidyl]pyrido[4,3-d]pyrimidin-5-one] | 1000 to 10000 | 1000 to 10000 | 1000 to 10000 | 100 to 1000 | 100 to 1000 | 100 to 1000 | < 100 | 1000 to 10000 | 100 to 1000 |  |  |  |  |
| Cc1cn2nc(-c3ccc4c(=O)n([C@@H]5CCNC6(CCC6)C5)ccc4n3)cc(C)c2n1 [Compound 1517] | 100 to 1000 | 100 to 1000 | 100 to 1000 | 100 to 1000 | 100 to 1000 | 100 to 1000 | < 100 | 1000 to 10000 | 1000 to 10000 |  |  |  |  |
| Cc1c(O)c(-c2ncc3c(=O)n([C@H]4C[C@H]5COC[C@@H](C4)N5)ccc3n2)cc2cn(C)nc12 [Compound 1472] | 1000 to 10000 | 1000 to 10000 | 1000 to 10000 | 100 to 1000 | 100 to 1000 | 100 to 1000 | 100 to 1000 | 1000 to 10000 | 1000 to 10000 |  |  |  |  |
| Cc1cn2cc(-c3ccc4c(=O)n([C@@H]5CCN[C@H](C)C5)ccc4n3)cc(F)c2n1 [Compound 1475] | > 10000 | 1000 to 10000 | 1000 to 10000 | 1000 to 10000 | 1000 to 10000 | 1000 to 10000 | 100 to 1000 | 1000 to 10000 | 1000 to 10000 |  |  |  |  |
| Cc1cn2nc(-c3ccc4c(=O)n([C@H]5CCN[C@@H](C)C5)ccc4n3)cc(C)c2n1 [Compound 1495] | 100 to 1000 | < 100 | < 100 | < 100 | < 100 | < 100 | < 100 | 100 to 1000 | 100 to 1000 |  |  |  |  |
| Cc1cn2cc(-c3ncc4c(=O)n([C@H]5CCN[C@@H](C)C5)ccc4n3)cc(F)c2n1 [Compound 1500, 2-(8-fluoro-2-methyl-imidazo[1,2-a]pyridin-6-yl)-6-[(2S,4S)-2-methyl-4-piperidyl]pyrido[4,3-d]pyrimidin-5-one] | 100 to 1000 | 100 to 1000 | 100 to 1000 | < 100 | < 100 | < 100 | < 100 | 100 to 1000 | 100 to 1000 |  |  |  |  |
| Cc1cn2nc(-c3ccc4c(=O)n([C@H]5CCNC6(CCC6)C5)ccc4n3)cc(C)c2n1 [Compound 1518] | 100 to 1000 | 100 to 1000 | 100 to 1000 | 100 to 1000 | < 100 | 100 to 1000 | < 100 | 100 to 1000 | 100 to 1000 |  |  |  |  |
| Cc1cn2cc(-c3ccc4c(=O)n([C@H]5CCN[C@@H](C)C5)ccc4n3)cc(F)c2n1 [Compound 1494] | 1000 to 10000 | 1000 to 10000 | 1000 to 10000 | 100 to 1000 | 100 to 1000 | 100 to 1000 | < 100 | 1000 to 10000 | 100 to 1000 |  |  |  |  |
| Cc1c(O)c(-c2ccc3c(=O)n([C@H]4CC[C@H](N(C)C)CC4)ccc3n2)cc2cn(C)nc12 [Compound 1484, 6-[4-(dimethylamino)cyclohexyl]-2-(6-hydroxy-2,7-dimethyl-indazol-5-yl)-1,6-naphthyridin-5-one] | 100 to 1000 | < 100 | < 100 | < 100 | < 100 | < 100 | < 100 | 100 to 1000 | < 100 |  |  |  |  |
| Cc1cn2cc(-c3ccc4c(=O)n(C56CCC(N)(CC5)C6)ccc4n3)cc(F)c2n1 [Compound 1492] | 1000 to 10000 | 1000 to 10000 | 1000 to 10000 | 100 to 1000 | 100 to 1000 | 100 to 1000 | < 100 | 1000 to 10000 | 100 to 1000 |  |  |  |  |
| CNCCn1ncc2cc(-c3cc(C)c4nc(C)cn4n3)ccc2c1=O [Compound 472] | 100 to 1000 | 100 to 1000 |  |  | 100 to 1000 | 100 to 1000 |  |  |  | 100 to 1000 | 100 to 1000 | < 100 | 100 to 1000 |
| Cn1cc2cc(-c3ccc4c(=O)n(C5CCNCC5)ccc4n3)c(O)c(C#N)c2n1 [Compound 1283] | 100 to 1000 | 100 to 1000 | 100 to 1000 | 100 to 1000 | 100 to 1000 | 100 to 1000 | < 100 | 1000 to 10000 |  |  |  |  |  |
